# What was measured:
# 293T cells = assay: Cell viability assay (CCK-8) with LNP preparations of Fluc-mRNA; assay type: cell-based
# How it was run: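 293T cells seeded at 10,000/well and cultured overnight, then given LNPs (cationic lipid:DSPC:cholesterol:DMG-PEG2000 49:10:39.5:1.5) carrying 1.5 μg Fluc-mRNA. After 24 h, viability measured by CCK-8 with 1 h incubation.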
# [1] = Particle size and polydispersity index (PDI) of lipid nanoparticles, dynamic light scattering; assay type: physicochemical; details: LNP preparation with the named cationic lipid; 90° scattering angle, 25° C
# How it was run: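 LNPs of cationic lipid:DSPC:cholesterol:DMG-PEG2000 (49:10:39.5:1.5 molar) encapsulating eGFP or Fluc mRNA at 15:1 lipid:mRNA weight ratio, made by ethanol injection into citrate buffer pH 4–5, sonication, and ultrafiltration into PBS. Size and PDI by DLS at 90° and 25° C after dilution in water, three measurements per sample.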
compound,measurement,setting,value
"CCCCCCCCCCCOC(=O)CCCN(CCCCCCC(=O)OCCC(CCCCCC)CCCCCC)CCNC(CO)(CO)CCc1ccc(CCCCCCCC)cc1 [YK-910, 3-hexylnonyl 7-((2-((1-hydroxy-2-(hydroxymethyl)-4-(4-octylphenyl)butan-2-yl)amino)ethyl) (4-oxo-4-(undecyloxy)butyl)amino) heptanoate]",Cell viability,"293T cells; LNP with 1.5 μg Fluc-mRNA, 24 hours, CCK-8",94%
same,Cell viability higher than that of HHMA,293T cells; difference vs HHMA,17%
same,Cell viability higher than that of I-1,293T cells; difference vs I-1,26%
same,Cell viability higher than that of Lipofectamine 3000,293T cells; difference vs Lipofectamine 3000,63%
same,Cell viability higher than that of MC3,293T cells; difference vs MC3,20%
same,Cell viability higher than that of SM-102,293T cells; difference vs SM-102,12%
same,Cell viability higher than that of YK-501,293T cells; difference vs YK-501,31%
same,Cytotoxicity lower than that of YK-902,293T cells; difference vs YK-902,58%
same,Cell viability higher than that of YK-906,293T cells; difference vs YK-906,31%
same,Cell viability higher than that of compound 7,293T cells; difference vs compound 7,21%
same,PDI,[1],10.3%
same,Particle size,[1],126 nm
